Measurements from ChEMBL document CHEMBL1201862, “PubChem BioAssay data set” (2004).
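Growth conditions: 96-well plates. Treatment: test compound, 48 hours, 5 concentrations. Analysis: linear interpolation between bracketing concentrations; unreached endpoints set to highest concentration. GI50: concentration for 50% inhibition of growth.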 The source made the active and inactive calls. No stated cut-off is given here; in the data, active = GI50 up to about 1.1 µM and inactive = higher.

Tests used:
Assay in all cases: inhibition of tumour cell growth, NCI panel, 48 h
HOP-92 = test system: HOP-92
Malme-3M = test system: Malme-3M
OVCAR-3 = test system: OVCAR-3
DU-145 = test system: DU-145
M14 = test system: M14
SK-MEL-2 = test system: SK-MEL-2
MDA-MB-231 = test system: MDA-MB-231
HT-29 = test system: HT-29
NCI-H460 = test system: NCI-H460
HCC 2998 = test system: HCC 2998
SNB-75 = test system: SNB-75
IGROV-1 = test system: IGROV-1
CAKI-1 = test system: CAKI-1
OVCAR-8 = test system: OVCAR-8
SN12C = test system: SN12C
HCT-15 = test system: HCT-15
OVCAR-4 = test system: OVCAR-4
U-251 = test system: U-251
SF-268 = test system: SF-268
SR = test system: SR
Hs-578T = test system: Hs-578T
MDA-N = test system: MDA-N
786-0 = test system: 786-0
NCI/ADR-RES = test system: NCI/ADR-RES
NCI-H226 = test system: NCI-H226
KM12 = test system: KM12
SW-620 = test system: SW-620
ACHN = test system: ACHN
SNB-19 = test system: SNB-19
RPMI-8226 = test system: RPMI-8226
NCI-H23 = test system: NCI-H23
LOX IMVI = test system: LOX IMVI
NCI-H522 = test system: NCI-H522
K562 = test system: K562
OVCAR-5 = test system: OVCAR-5
UACC-62 = test system: UACC-62
TK-10 = test system: TK-10
UO-31 = test system: UO-31
MDA-MB-435 = test system: MDA-MB-435
UACC-257 = test system: UACC-257
A549 = test system: A549
SK-MEL-5 = test system: SK-MEL-5
A498 = test system: A498
HCT-116 = test system: HCT-116
HOP-62 = test system: HOP-62
PC-3 = test system: PC-3
BT-549 = test system: BT-549
T47D = test system: T47D
COLO 205 = test system: COLO 205
HL-60 = test system: HL-60
SK-MEL-28 = test system: SK-MEL-28
CCRF-CEM = test system: CCRF-CEM
EKVX = test system: EKVX
SF-295 = test system: SF-295
MOLT-4 = test system: MOLT-4
MCF7 = test system: MCF7
SF-539 = test system: SF-539
RXF 393 = test system: RXF 393
SK-OV-3 = test system: SK-OV-3

## COc1cc(-c2nc(N)c(C#N)c3c2CCS(=O)(=O)c2ccc(C)cc2-3)cc(OC)c1OC
HOP-92
  GI50: 9.16 µM (inactive)
Malme-3M
  GI50: 17.5 µM (inactive)
OVCAR-3
  GI50: > 100 µM (inactive)
DU-145
  GI50: > 100 µM (inactive)
M14
  GI50: > 100 µM (inactive)
SK-MEL-2
  GI50: 49.7 µM (inactive)
MDA-MB-231
  GI50: 17.3 µM (inactive)
HT-29
  GI50: > 100 µM (inactive)
NCI-H460
  GI50: > 100 µM (inactive)
HCC 2998
  GI50: > 100 µM (inactive)
SNB-75
  GI50: 16.7 µM (inactive)
IGROV-1
  GI50: 18.7 µM (inactive)
CAKI-1
  GI50: > 100 µM (inactive)
OVCAR-8
  GI50: 4.98 µM (inactive)
SN12C
  GI50: 39.6 µM (inactive)
HCT-15
  GI50: > 100 µM
OVCAR-4
  GI50: > 100 µM (inactive)
U-251
  GI50: 24.8 µM (inactive)
SF-268
  GI50: > 100 µM (inactive)
SR
  GI50: > 100 µM (inactive)
Hs-578T
  GI50: 33.8 µM (inactive)
MDA-N
  GI50: > 100 µM (inactive)
786-0
  GI50: 19.1 µM (inactive)
NCI/ADR-RES
  GI50: 12.6 µM (inactive)
NCI-H226
  GI50: 9.46 µM (inactive)
KM12
  GI50: > 100 µM (inactive)
SW-620
  GI50: > 100 µM (inactive)
ACHN
  GI50: 28.6 µM (inactive)
SNB-19
  GI50: 7.05 µM (inactive)
RPMI-8226
  GI50: > 100 µM (inactive)
NCI-H23
  GI50: 25.4 µM (inactive)
LOX IMVI
  GI50: > 100 µM (inactive)
NCI-H522
  GI50: > 100 µM (inactive)
K562
  GI50: > 100 µM (inactive)
OVCAR-5
  GI50: > 100 µM (inactive)
UACC-62
  GI50: > 100 µM (inactive)
TK-10
  GI50: 9.98 µM (inactive)
UO-31
  GI50: > 100 µM (inactive)
MDA-MB-435
  GI50: > 100 µM (inactive)
UACC-257
  GI50: > 100 µM (inactive)
A549
  GI50: > 100 µM (inactive)
SK-MEL-5
  GI50: > 100 µM (inactive)
A498
  GI50: 29.4 µM (inactive)
HCT-116
  GI50: > 100 µM (inactive)
HOP-62
  GI50: 22.9 µM (inactive)
PC-3
  GI50: > 100 µM (inactive)
BT-549
  GI50: 53 µM (inactive)
T47D
  GI50: 98.2 µM (inactive)
COLO 205
  GI50: > 100 µM (inactive)
HL-60
  GI50: > 100 µM (inactive)
SK-MEL-28
  GI50: > 100 µM (inactive)
CCRF-CEM
  GI50: > 100 µM (inactive)

## N#CCCC1(CCC#N)S(=O)(=O)OCCOS1(=O)=O
EKVX
  GI50: > 100 µM (inactive)
Malme-3M
  GI50: 46.1 µM (inactive)
OVCAR-3
  GI50: 32.1 µM (inactive)
DU-145
  GI50: 58.3 µM (inactive)
M14
  GI50: 56.8 µM (inactive)
SK-MEL-2
  GI50: 42.2 µM (inactive)
HT-29
  GI50: 45.9 µM (inactive)
SF-295
  GI50: 8.99 µM (inactive)
MOLT-4
  GI50: 24.7 µM (inactive)
SNB-75
  GI50: 32.1 µM (inactive)
MCF7
  GI50: 34.2 µM (inactive)
SF-539
  GI50: 8.34 µM (inactive)
CAKI-1
  GI50: 40.6 µM (inactive)
OVCAR-8
  GI50: 89.1 µM (inactive)
SN12C
  GI50: 29.6 µM (inactive)
RXF 393
  GI50: 37.1 µM (inactive)
HCT-15
  GI50: 36.8 µM
OVCAR-4
  GI50: 20.7 µM (inactive)
U-251
  GI50: 24.7 µM (inactive)
SF-268
  GI50: 32.9 µM (inactive)
SR
  GI50: 29.6 µM (inactive)
Hs-578T
  GI50: 18.2 µM (inactive)
MDA-N
  GI50: 54.3 µM (inactive)
786-0
  GI50: 21.6 µM (inactive)
NCI/ADR-RES
  GI50: 19.2 µM (inactive)
NCI-H226
  GI50: 41.5 µM (inactive)
KM12
  GI50: 32 µM (inactive)
SW-620
  GI50: 24.1 µM (inactive)
ACHN
  GI50: 32.4 µM (inactive)
SNB-19
  GI50: 48.8 µM (inactive)
RPMI-8226
  GI50: 37 µM (inactive)
NCI-H23
  GI50: 36.1 µM (inactive)
SK-OV-3
  GI50: 51.3 µM (inactive)
LOX IMVI
  GI50: 18.3 µM (inactive)
NCI-H522
  GI50: 27.1 µM (inactive)
OVCAR-5
  GI50: > 100 µM (inactive)
UACC-62
  GI50: 9.4 µM (inactive)
TK-10
  GI50: > 100 µM (inactive)
UO-31
  GI50: 50.5 µM (inactive)
MDA-MB-435
  GI50: 47.6 µM (inactive)
UACC-257
  GI50: > 100 µM (inactive)
A549
  GI50: 48.1 µM (inactive)
SK-MEL-5
  GI50: 47.9 µM (inactive)
HCT-116
  GI50: 40.9 µM (inactive)
HOP-62
  GI50: < 0.01 µM (active)
PC-3
  GI50: 63.4 µM (inactive)
BT-549
  GI50: 6.04 µM (inactive)
T47D
  GI50: 43.8 µM (inactive)
COLO 205
  GI50: 85.9 µM (inactive)
HL-60
  GI50: 23.3 µM (inactive)
SK-MEL-28
  GI50: 50 µM (inactive)
CCRF-CEM
  GI50: 28.7 µM (inactive)

## CCN(CC)C(=S)SS(=O)(=O)c1ccccc1[N+](=O)[O-]
HOP-92
  GI50: 24 µM (inactive)
EKVX
  GI50: > 100 µM (inactive)
Malme-3M
  GI50: 10.2 µM (inactive)
OVCAR-3
  GI50: 22.2 µM (inactive)
DU-145
  GI50: 27.3 µM (inactive)
M14
  GI50: 25 µM (inactive)
SK-MEL-2
  GI50: > 76.7 µM (inactive)
MDA-MB-231
  GI50: 18.1 µM (inactive)
HT-29
  GI50: 16.9 µM (inactive)
NCI-H460
  GI50: 25.1 µM (inactive)
SF-295
  GI50: 31.8 µM (inactive)
HCC 2998
  GI50: > 49.2 µM (inactive)
MOLT-4
  GI50: 0.415 µM (active)
SNB-75
  GI50: 76.2 µM (inactive)
IGROV-1
  GI50: 0.504 µM (active)
SF-539
  GI50: 19.9 µM (inactive)
CAKI-1
  GI50: 22.3 µM (inactive)
OVCAR-8
  GI50: 22.9 µM (inactive)
SN12C
  GI50: 22 µM (inactive)
RXF 393
  GI50: 20.8 µM (inactive)
HCT-15
  GI50: 57.9 µM
OVCAR-4
  GI50: 44.3 µM (inactive)
U-251
  GI50: 21.7 µM (inactive)
SF-268
  GI50: 30.7 µM (inactive)
SR
  GI50: 0.359 µM (active)
Hs-578T
  GI50: 31.1 µM (inactive)
MDA-N
  GI50: 38.9 µM (inactive)
786-0
  GI50: 18.6 µM (inactive)
NCI/ADR-RES
  GI50: 41.3 µM (inactive)
NCI-H226
  GI50: > 60 µM (inactive)
KM12
  GI50: > 35.4 µM (inactive)
SW-620
  GI50: 20.9 µM (inactive)
ACHN
  GI50: 43.8 µM (inactive)
SNB-19
  GI50: > 53.7 µM (inactive)
RPMI-8226
  GI50: 15.2 µM (inactive)
NCI-H23
  GI50: > 54 µM (inactive)
SK-OV-3
  GI50: > 71.4 µM (inactive)
LOX IMVI
  GI50: 17.3 µM (inactive)
NCI-H522
  GI50: 0.404 µM (active)
K562
  GI50: 11.7 µM (inactive)
OVCAR-5
  GI50: > 50.4 µM (inactive)
UACC-62
  GI50: 35 µM (inactive)
TK-10
  GI50: 31.9 µM (inactive)
UO-31
  GI50: 14.5 µM (inactive)
MDA-MB-435
  GI50: 21.7 µM (inactive)
UACC-257
  GI50: 36.8 µM (inactive)
A549
  GI50: 14.7 µM (inactive)
SK-MEL-5
  GI50: 5.83 µM (inactive)
A498
  GI50: > 56.6 µM (inactive)
HCT-116
  GI50: 18.2 µM (inactive)
HOP-62
  GI50: 22 µM (inactive)
PC-3
  GI50: 54.5 µM (inactive)
BT-549
  GI50: > 51.2 µM (inactive)
T47D
  GI50: 28.1 µM (inactive)
COLO 205
  GI50: > 53.5 µM (inactive)
HL-60
  GI50: 2.47 µM (inactive)
SK-MEL-28
  GI50: 18.7 µM (inactive)
CCRF-CEM
  GI50: 2.51 µM (inactive)
